Experimental findings from patent US12516044B2, “Heterocyclic compounds as immunomodulators” (Incyte Corporation, priority 2015, dated 2026) are described below.

A value given as a limit tells only on which side of the number the result lay.

In this assay the target is T1, PD-1/PD-L1 protein/protein interaction (Homo sapiens, UniProt Q9NZQ7).
T1 construct: Recombinant human PD-L1 protein (19-238) with a His-tag at the C-terminus; purchased AcroBiosystems PD1-H5229 (PD-L1-His); PD1-H5257 (PD-1-Fc)
The assay can be described thus: PD-1/PD-L1 Homogeneous Time-Resolved Fluorescence (HTRF) Binding Assay. Particulars: recombinant human PD-L1 (19-238) His-tag and human PD-1 (25-167) Fc tag; 25° C., PBS pH 7.4. The method, then:
Example A. PD-1/PD-L1 Homogeneous Time-Resolved Fluorescence (HTRF) Binding Assay
The assays were conducted in a standard black 384-well polystyrene plate with a final volume of 20 μL. Inhibitors were first serially diluted in DMSO and then added to the plate wells before the addition of other reaction components. The final concentration of DMSO in the assay was 1%. The assays were carried out at 25° C. in the PBS buffer (pH 7.4) with 0.05% Tween-20 and 0.1% BSA. Recombinant human PD-L1 protein (19-238) with a His-tag at the C-terminus was purchased from AcroBiosystems (PD1-H5229). Recombinant human PD-1 protein (25-167) with Fc tag at the C-terminus was also purchased from AcroBiosystems (PD1-H5257). PD-L1 and PD-1 proteins were diluted in the assay buffer and 10 μL was added to the plate well. Plates were centrifuged and proteins were preincubated with inhibitors for 40 minutes. The incubation was followed by the addition of […] of HTRF detection buffer supplemented with Europium cryptate-labeled anti-human IgG (PerkinElmer-AD0212) specific for Fc and anti-His antibody conjugated to SureLight®-Allophycocyanin (APC, PerkinElmer-AD0059H). After centrifugation, the plate was incubated at 25° C. for 60 min. before reading on a PHERAstar FS plate reader (665 nm/620 nm ratio). Final concentrations in the assay were […] PD1, 10 nM PD-L1, 1 nM europium anti-human IgG and 20 nM anti-His-Allophycocyanin. IC50 determination was performed by fitting the curve of percent control activity versus the log of the inhibitor concentration using the GraphPad Prism 5.0 software.

T1 sequence (Q9NZQ7 19-238): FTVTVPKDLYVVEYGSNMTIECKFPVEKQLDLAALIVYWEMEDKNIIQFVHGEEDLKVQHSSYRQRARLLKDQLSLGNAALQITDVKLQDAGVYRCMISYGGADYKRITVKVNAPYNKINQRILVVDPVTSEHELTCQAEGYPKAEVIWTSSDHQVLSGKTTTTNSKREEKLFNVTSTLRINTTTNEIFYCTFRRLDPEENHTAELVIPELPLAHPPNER

The IC50 is the concentration needed to halve the response being measured. Take `COc1cc(C(=O)Nc2cccc(-c3ccccc3)c2C)ncc1CNCCO` [Example 35, 5-{[(2-hydroxyethyl)amino]methyl}-4-methoxy-N-(2-methylbiphenyl-3-yl)pyridine-2-carboxamide]: the half-maximal inhibitory concentration (IC50) was at most 0.01 µM.

Take `Cc1c(NC(=O)c2ccc(CN3CCCC[C@H]3C(=O)O)cn2)ccnc1-c1ccccc1` [Example 42, (S)-1-((6-(3-methyl-2-phenylpyridin-4-ylcarbamoyl)pyridin-3-yl)methyl)piperidine-2-carboxylic Acid]: the IC50 is above 1 µM.

For `Cc1c(NC(=O)c2ccc(CN3CCCC[C@H]3C(=O)O)cn2)cccc1-c1ccccc1` [Example 1, (2S)-1-[(6-{[(2-methylbiphenyl-3-yl)amino]carbonyl}pyridin-3-yl)methyl]piperidine-2-carboxylic Acid], the half-inhibitory concentration (IC50) was in the range of 0.01 to 0.1 µM.

Consider `Cc1c(NC(=O)c2ncc(CNCCO)cc2F)cccc1-c1ccccc1` [Example 17, 3-fluoro-5-{[(2-hydroxyethyl)amino]methyl}-N-(2-methylbiphenyl-3-yl)pyridine-2-carboxamide], for which the IC50 was in the range of 0.01 to 0.1 µM.

Take `N#Cc1c(NC(=O)c2ccc(CN3CCCC[C@H]3C(=O)O)cn2)cccc1-c1ccc2c(c1)OCCO2` [Example 9, (2S)-1-{[6-({[2-cyano-3-(2,3-dihydro-1,4-benzodioxin-6-yl)phenyl]amino}carbonyl)pyridin-3-yl]methyl}piperidine-2-carboxylic Acid]: the IC50 was 0.01 to 0.1 µM.

Turning to `Cc1c(NC(=O)c2cc(CNCCO)ccn2)cccc1-c1ccccc1` [Example 23, 4-{[(2-hydroxyethyl)amino]methyl}-N-(2-methylbiphenyl-3-yl)pyridine-2-carboxamide], the IC50 was 0.01 to 0.1 µM.

As to `CC(C)(C)OC(=O)N1CCC=C(c2cccc(NC(=O)c3ccc(CNCCO)cn3)c2C#N)C1` [Example 40, tert-butyl 5-(2-cyano-3-{[(5-{[(2-hydroxyethyl)amino]methyl}pyridin-2-yl)carbonyl]amino}phenyl)-3,6-dihydropyridine-1(2H)-carboxylate], the half-inhibitory concentration (IC50) lay in the range of 0.1 to 1 µM.

`Cc1c(NC(=O)c2cc(OCc3cccnc3)c(CNCCO)cn2)cccc1-c1ccccc1` [Example 19, 5-{[(2-hydroxyethyl)amino]methyl}-N-(2-methylbiphenyl-3-yl)-4-(pyridin-3-ylmethoxy)pyridine-2-carboxamide]: the half-maximal inhibitory concentration (IC50) is 0.01 to 0.1 µM.

In the case of `Cc1c(NC(=O)c2ccc(CNCCO)cn2)ccnc1-c1ccccc1` [Example 43, 5-{[(2-hydroxyethyl)amino]methyl}-N-(3-methyl-2-phenylpyridin-4-yl)pyridine-2-carboxamide], the half-maximal inhibitory concentration (IC50) is 0.1 to 1 µM.

As to `Cc1c(NC(=O)c2cc(C#N)ccn2)cccc1-c1ccccc1` [Example 25, 4-cyano-N-(2-methylbiphenyl-3-yl)pyridine-2-carboxamide], the IC50 was in the range of 0.01 to 0.1 µM.

As to `Cc1c(NC(=O)c2ncc(CN3CCCC[C@H]3C(=O)O)cc2Cl)cccc1-c1ccccc1` [Example 15, (2S)-1-[(5-chloro-6-{[(2-methylbiphenyl-3-yl)amino]carbonyl}pyridin-3-yl)methyl]piperidine-2-carboxylic Acid], the IC50 was in the range of 0.1 to 1 µM.

Consider `N#Cc1c(NC(=O)c2ccc(CNCCO)cn2)cccc1-c1ccc2c(c1)OCCO2` [Example 10, N-(2-cyano-3-(2,3-dihydrobenzo[b][1,4]dioxin-6-yl)phenyl)-5-((2-hydroxyethylamino)methyl)picolinamide], for which the IC50 is at most 0.01 µM.

Take `Cc1c(NC(=O)c2ccncn2)cccc1-c1ccccc1` [Example 27, N-(2-methylbiphenyl-3-yl)pyrimidine-4-carboxamide]: the IC50 lay within 0.01 to 0.1 µM.

As for `N#Cc1c(NC(=O)c2ccc(CNCCO)cn2)cccc1-c1ccc2c(c1)OCC2` [Example 47, N-[2-cyano-3-(2,3-dihydro-1-benzofuran-6-yl)phenyl]-5-{[(2-hydroxyethyl)amino]methyl}pyridine-2-carboxamide], the IC50 lay in the range of 0.01 to 0.1 µM.

Take `Cc1c(NC(=O)c2ccnc(OCc3cccnc3)n2)cccc1-c1ccccc1` [Example 30, N-(2-methylbiphenyl-3-yl)-2-(pyridin-3-ylmethoxy)pyrimidine-4-carboxamide]: the IC50 fell in the range of 0.1 to 1 µM.

Turning to `Cc1c(NC(=O)c2cc(-c3ccncc3)c(CNCCO)cn2)cccc1-c1ccccc1` [Example 31, 5-{[(2-hydroxyethyl)amino]methyl}-N-(2-methylbiphenyl-3-yl)-4,4′-bipyridine-2-carboxamide], the half-maximal inhibitory concentration (IC50) was 0.01 to 0.1 µM.

For the molecule `N#Cc1c(NC(=O)c2ccc(CNCCO)cn2)cccc1-c1ccccc1` [Example 8, N-(2-cyanobiphenyl-3-yl)-5-{[(2-hydroxyethyl)amino]methyl}pyridine-2-carboxamide], the IC50 is at most 0.01 µM.

For `Cc1cnc(C(=O)Nc2cccc(-c3ccccc3)c2C)cc1CN1CCCC[C@H]1C(=O)O` [Example 36, (2S)-1-[(5-methyl-2-{[(2-methylbiphenyl-3-yl)amino]carbonyl}pyridin-4-yl)methyl]piperidine-2-carboxylic Acid], the concentration for half-maximal inhibition (IC50) fell in the range of 0.01 to 0.1 µM.

In the case of `Cc1c(NC(=O)c2cc(OCC3CC3)c(CNCCO)cn2)cccc1-c1ccccc1` [Example 34, 4-(cyclopropylmethoxy)-5-((2-hydroxyethylamino)methyl)-N-(2-methylbiphenyl-3-yl)picolinamide], the IC50 lay in the range of 0.01 to 0.1 µM.

On to `Cc1c(NC(=O)c2ncc(CNCCO)cn2)cccc1-c1ccccc1` [Example 6, 5-{[(2-hydroxyethyl)amino]methyl}-N-(2-methylbiphenyl-3-yl)pyrimidine-2-carboxamide], for which the IC50 fell in the range of 0.01 to 0.1 µM.

On to `Cc1c(NC(=O)c2cc(OCc3cccnc3)ncn2)cccc1-c1ccccc1` [Example 24, N-(2-methylbiphenyl-3-yl)-6-(pyridin-3-ylmethoxy)pyrimidine-4-carboxamide], for which the concentration for half-maximal inhibition (IC50) lay in the range of 0.1 to 1 µM.

In the case of `Cc1c(NC(=O)c2ccc(CNCCO)nn2)cccc1-c1ccccc1` [Example 12, 6-{[(2-hydroxyethyl)amino]methyl}-N-(2-methylbiphenyl-3-yl)pyridazine-3-carboxamide], the half-maximal inhibitory concentration (IC50) was 0.01 to 0.1 µM.

In the case of `Cc1c(NC(=O)c2cc(OCc3cccc(C#N)c3)c(CNCCO)cn2)cccc1-c1ccccc1` [Example 18, 4-[(3-cyanobenzyl)oxy]-5-{[(2-hydroxyethyl)amino]methyl}-N-(2-methylbiphenyl-3-yl)pyridine-2-carboxamide], the IC50 was 0.01 to 0.1 µM.

In the case of `Cc1cc(CNCCO)cnc1C(=O)Nc1cccc(-c2ccccc2)c1C` [Example 4, 5-{[(2-hydroxyethyl)amino]methyl}-3-methyl-N-(2-methylbiphenyl-3-yl)pyridine-2-carboxamide], the IC50 is 0.01 to 0.1 µM.

On to `Cc1c(NC(=O)c2cnccn2)cccc1-c1ccccc1` [Example 26, N-(2-methylbiphenyl-3-yl)pyrazine-2-carboxamide], for which the half-maximal inhibitory concentration (IC50) is 0.01 to 0.1 µM.

`Cc1cc(C(=O)Nc2cccc(-c3ccccc3)c2C)ncc1CNCCO` [Example 33, 5-{[(2-hydroxyethyl)amino]methyl}-4-methyl-N-(2-methylbiphenyl-3-yl)pyridine-2-carboxamide]: the concentration for half-maximal inhibition (IC50) was at most 0.01 µM.

Turning to `Cc1c(NC(=O)c2ccc(CNCCO)cn2)cc(F)cc1-c1ccc2c(c1)OCCO2` [Example 45, N-[3-(2,3-dihydro-1,4-benzodioxin-6-yl)-5-fluoro-2-methylphenyl]-5-{[(2-hydroxyethyl)amino]methyl}pyridine-2-carboxamide], the IC50 was at most 0.01 µM.

For `Cc1c(NC(=O)c2cnc(CNCCO)cn2)cccc1-c1ccccc1` [Example 11, 5-{[(2-hydroxyethyl)amino]methyl}-N-(2-methylbiphenyl-3-yl)pyrazine-2-carboxamide], the half-maximal inhibitory concentration (IC50) lay in the range of 0.01 to 0.1 µM.

Turning to `N#Cc1c(NC(=O)c2ccc(CNCCO)cn2)cccc1C1=CCCCC1` [Example 38, N-(2-cyano-3-cyclohex-1-en-1-ylphenyl)-5-{[(2-hydroxyethyl)amino]methyl} pyridine-2-carboxamide], the concentration for half-maximal inhibition (IC50) is at most 0.01 µM.

With `Cn1cc2ccc(-c3cccc(NC(=O)c4ccc(CNCCO)cn4)c3C#N)cc2n1` [Example 48, N-[2-cyano-3-(2-methyl-2H-indazol-6-yl)phenyl]-5-{[(2-hydroxyethyl)amino]methyl}pyridine-2-carboxamide], the IC50 was 0.01 to 0.1 µM.

Take `Cc1c(NC(=O)c2ncc(CN3CCCC[C@H]3C(=O)O)cn2)cccc1-c1ccccc1` [Example 5, (2S)-1-[(2-{[(2-methylbiphenyl-3-yl)amino]carbonyl}pyrimidin-5-yl)methyl]piperidine-2-carboxylic Acid]: the IC50 lay in the range of 0.1 to 1 µM.

Take `N#Cc1c(NC(=O)c2ccc(CNCCO)cn2)cccc1N1CCCCC1` [Example 39, N-(2-cyano-3-piperidin-1-ylphenyl)-5-{[(2-hydroxyethyl)amino]methyl}pyridine-2-carboxamide]: the 50% inhibitory concentration (IC50) is above 1 µM.

As to `Cc1c(NC(=O)c2cccnn2)cccc1-c1ccccc1` [Example 29, N-(2-methylbiphenyl-3-yl)pyridazine-3-carboxamide], the concentration for half-maximal inhibition (IC50) lay within 0.1 to 1 µM.
